According to US10004701B2, “Methods and compositions for treating infection” (UNIVERSITY OF ROCHESTER, priority 2012, dated 2018):
Structures can show the parent of a compound that is named as a salt. Where two headings read alike, the source gives them in different places.

Legend:
Experiment in all cases: AK assay 384-well format, Prestwick library screening
[1] = system: E. cloacae; assay type: cell-based, Enterobacter cloacae; conditions: Enterobacter cloacae, 3 h, 50 μM final drug concentration
[2] = system: P. aeruginosa; assay type: cell-based, Pseudomonas aeruginosa; conditions: Pseudomonas aeruginosa, 3 h, 50 μM final drug concentration
[3] = system: S. aureus strain USA300-0114; assay type: cell-based, Staphylococcus aureus; conditions: Staphylococcus aureus, USA300, 3 h, 50 μM final drug concentration
[4] = system: E. faecium; assay type: cell-based, Enterococcus faecium; conditions: Enterococcus faecium, 3 h, 50 μM final drug concentration
[5] = system: A. baumannii strain 98-37-09; assay type: cell-based, Acinetobacter baumannii; conditions: Acinetobacter baumannii, 983709, 3 h, 50 μM final drug concentration
[6] = system: K. pneumoniae; assay type: cell-based, Klebsiella pneumoniae; conditions: Klebsiella pneumoniae, 3 h, 50 μM final drug concentration
[7] = system: E. coli; assay type: cell-based, Escherichia coli; conditions: Escherichia coli, 3 h, 50 μM final drug concentration
[8] = planktonic E. cloacae, positive cutoff 3-fold increase, read-out: AK-based Prestwick library screening result, E. cloacae (fold increase in extracellular AK activity)
[9] = planktonic P. aeruginosa, positive cutoff 3-fold increase, read-out: AK-based Prestwick library screening result, P. aeruginosa (fold increase in extracellular AK activity)
[10] = planktonic S. aureus, positive cutoff 3-fold increase, read-out: AK-based Prestwick library screening result, S. aureus (fold increase in extracellular AK activity)
[11] = planktonic E. faecium, positive cutoff 3-fold increase, read-out: AK-based Prestwick library screening result, E. faecium (fold increase in extracellular AK activity)
[12] = planktonic A. baumannii, positive cutoff 3-fold increase, read-out: AK-based Prestwick library screening result, A. baumannii (fold increase in extracellular AK activity)
[13] = planktonic K. pneumoniae, positive cutoff 3-fold increase, read-out: AK-based Prestwick library screening result, K. pneumoniae (fold increase in extracellular AK activity)
[14] = planktonic E. coli, positive cutoff 3-fold increase, read-out: AK-based Prestwick library screening result, E. coli (fold increase in extracellular AK activity)

SMILES: CC(C)(C)NC(=O)[C@@H]1C[C@@H]2CCCC[C@@H]2CN1C[C@@H](O)[C@H](Cc1ccccc1)NC(=O)[C@H](CC(N)=O)NC(=O)c1ccc2ccccc2n1 [Saquinavir mesylate]
- fold induction at 50 µM ([1]; planktonic E. cloacae, […], read-out: AK-based Prestwick library screening result, E. cloacae (fold increase in extracellular AK activity)): 1.8
- fold induction at 50 µM ([2]; planktonic P. aeruginosa, […], read-out: AK-based Prestwick library screening result, P. aeruginosa (fold increase in extracellular AK activity)): 1
- fold induction at 50 µM ([3]; planktonic S. aureus, […], read-out: AK-based Prestwick library screening result, S. aureus (fold increase in extracellular AK activity)): 0.9
- fold induction at 50 µM ([4]; planktonic E. faecium, […], read-out: AK-based Prestwick library screening result, E. faecium (fold increase in extracellular AK activity)): 1.2
- fold induction at 50 µM ([5]; planktonic A. baumannii, […], read-out: AK-based Prestwick library screening result, A. baumannii (fold increase in extracellular AK activity)): 1.5
- fold induction at 50 µM ([6]; planktonic K. pneumoniae, […], read-out: AK-based Prestwick library screening result, K. pneumoniae (fold increase in extracellular AK activity)): 1.1
- fold induction at 50 µM ([7]; planktonic E. coli, […], read-out: AK-based Prestwick library screening result, E. coli (fold increase in extracellular AK activity)): 1.3

SMILES: CN(C)CCC(c1ccccc1)c1ccccn1 (centres unmarked) [Pheniramine maleate]
- fold induction at 50 µM ([1]; planktonic E. cloacae, 384-well, […], read-out: AK-based Prestwick Library Screening Results: E. cloacae (increase in extracellular AK activity)): 1.7
- fold induction at 50 µM ([2]; planktonic P. aeruginosa, 384-well, […], read-out: AK-based Prestwick Library Screening Results: P. aeruginosa (increase in extracellular AK activity)): 1
- fold induction at 50 µM ([3]; planktonic S. aureus, 384-well, […], read-out: AK-based Prestwick Library Screening Results: S. aureus (increase in extracellular AK activity)): 1
- fold induction at 50 µM ([4]; planktonic E. faecium, 384-well, […], read-out: AK-based Prestwick Library Screening Results: E. faecium (increase in extracellular AK activity)): 1
- fold induction at 50 µM ([5]; planktonic A. baumannii, 384-well, […], read-out: AK-based Prestwick Library Screening Results: A. baumannii (increase in extracellular AK activity)): 1
- fold induction at 50 µM ([6]; planktonic K. pneumoniae, 384-well, […], read-out: AK-based Prestwick Library Screening Results: K. pneumoniae (increase in extracellular AK activity)): 1
- fold induction at 50 µM ([7]; planktonic E. coli, 384-well, […], read-out: AK-based Prestwick Library Screening Results: E. coli (increase in extracellular AK activity)): 1.4

SMILES: O=C(O)CCC(=O)c1ccc(-c2ccccc2)cc1 [Fenbufen]
- fold induction at 50 µM ([1]; planktonic E. cloacae, 384-well, cutoff for positive-scoring molecules 3-fold increase, read-out: AK-based Prestwick Library Screening Results: E. cloacae (increase in extracellular AK activity)): 1.6
- fold induction at 50 µM ([2]; planktonic P. aeruginosa, 384-well, cutoff for positive-scoring molecules 3-fold increase, read-out: AK-based Prestwick Library Screening Results: P. aeruginosa (increase in extracellular AK activity)): 0.8
- fold induction at 50 µM ([3]; planktonic S. aureus, 384-well, cutoff for positive-scoring molecules 3-fold increase, read-out: AK-based Prestwick Library Screening Results: S. aureus (increase in extracellular AK activity)): 0.7
- fold induction at 50 µM ([4]; planktonic E. faecium, 384-well, cutoff for positive-scoring molecules 3-fold increase, read-out: AK-based Prestwick Library Screening Results: E. faecium (increase in extracellular AK activity)): 0.8
- fold induction at 50 µM ([5]; planktonic A. baumannii, 384-well, cutoff for positive-scoring molecules 3-fold increase, read-out: AK-based Prestwick Library Screening Results: A. baumannii (increase in extracellular AK activity)): 1
- fold induction at 50 µM ([6]; planktonic K. pneumoniae, 384-well, cutoff for positive-scoring molecules 3-fold increase, read-out: AK-based Prestwick Library Screening Results: K. pneumoniae (increase in extracellular AK activity)): 0.8
- fold induction at 50 µM ([7]; planktonic E. coli, 384-well, cutoff for positive-scoring molecules 3-fold increase, read-out: AK-based Prestwick Library Screening Results: E. coli (increase in extracellular AK activity)): 0.8

SMILES: CC(=O)OC(C)C[N+](C)(C)C (centres unmarked) [Methacholine chloride]
- fold induction at 50 µM ([1]; planktonic, cutoff for positive-scoring molecules 3-fold increase, read-out: AK-based Prestwick Library Screening Results, E. cloacae (fold increase in extracellular AK activity)): 1.3
- fold induction at 50 µM ([2]; planktonic, cutoff for positive-scoring molecules 3-fold increase, read-out: AK-based Prestwick Library Screening Results, P. aeruginosa (fold increase in extracellular AK activity)): 0.9
- fold induction at 50 µM ([3]; planktonic, cutoff for positive-scoring molecules 3-fold increase, read-out: AK-based Prestwick Library Screening Results, S. aureus (fold increase in extracellular AK activity)): 0.7
- fold induction at 50 µM ([4]; planktonic, cutoff for positive-scoring molecules 3-fold increase, read-out: AK-based Prestwick Library Screening Results, E. faecium (fold increase in extracellular AK activity)): 0.9
- fold induction at 50 µM ([5]; planktonic, cutoff for positive-scoring molecules 3-fold increase, read-out: AK-based Prestwick Library Screening Results, A. baumannii (fold increase in extracellular AK activity)): 0.8
- fold induction at 50 µM ([6]; planktonic, cutoff for positive-scoring molecules 3-fold increase, read-out: AK-based Prestwick Library Screening Results, K. pneumoniae (fold increase in extracellular AK activity)): 0.7
- fold induction at 50 µM ([7]; planktonic, cutoff for positive-scoring molecules 3-fold increase, read-out: AK-based Prestwick Library Screening Results, E. coli (fold increase in extracellular AK activity)): 0.9

SMILES: CCC(=O)OCC(=O)[C@@]1(OC(=O)CC)[C@@H](C)C[C@H]2[C@@H]3CCC4=CC(=O)C=C[C@]4(C)[C@@]3(Cl)[C@@H](O)C[C@@]21C [Beclomethasone dipropionate]
- fold induction at 50 µM ([1]; cutoff for positive-scoring molecules 3-fold increase, read-out: AK-based Prestwick Library Screening Results, E. cloacae (fold increase in extracellular AK activity)): 1.5
- fold induction at 50 µM ([2]; cutoff for positive-scoring molecules 3-fold increase, read-out: AK-based Prestwick Library Screening Results, P. aeruginosa (fold increase in extracellular AK activity)): 1
- fold induction at 50 µM ([3]; cutoff for positive-scoring molecules 3-fold increase, read-out: AK-based Prestwick Library Screening Results, S. aureus (fold increase in extracellular AK activity)): 0.5
- fold induction at 50 µM ([4]; cutoff for positive-scoring molecules 3-fold increase, read-out: AK-based Prestwick Library Screening Results, E. faecium (fold increase in extracellular AK activity)): 1
- fold induction at 50 µM ([5]; cutoff for positive-scoring molecules 3-fold increase, read-out: AK-based Prestwick Library Screening Results, A. baumannii (fold increase in extracellular AK activity)): 1
- fold induction at 50 µM ([6]; cutoff for positive-scoring molecules 3-fold increase, read-out: AK-based Prestwick Library Screening Results, K. pneumoniae (fold increase in extracellular AK activity)): 0.9
- fold induction at 50 µM ([7]; cutoff for positive-scoring molecules 3-fold increase, read-out: AK-based Prestwick Library Screening Results, E. coli (fold increase in extracellular AK activity)): 1.1

SMILES: O=C(O)/C=C/c1ccc(Cn2ccnc2)cc1 [Ozagrel hydrochloride]
- fold induction at 50 µM [1, 8]: 0.9
- fold induction at 50 µM [2, 9]: 0.6
- fold induction at 50 µM [3, 10]: 0.5
- fold induction at 50 µM [4, 11]: 0.9
- fold induction at 50 µM [5, 12]: 0.7
- fold induction at 50 µM [6, 13]: 0.5
- fold induction at 50 µM [7, 14]: 0.6

SMILES: CC(=O)Nc1nnc(S(N)(=O)=O)s1 [Acetazolamide]
- fold induction at 50 µM ([1]; 384-well format, cutoff for positive-scoring molecules 3-fold increase, read-out: AK-based Prestwick Library Screening Results, E. cloacae (increase in extracellular AK activity)): 0.3
- fold induction at 50 µM ([2]; 384-well format, cutoff for positive-scoring molecules 3-fold increase, read-out: AK-based Prestwick Library Screening Results, P. aeruginosa (increase in extracellular AK activity)): 0.3
- fold induction at 50 µM ([3]; 384-well format, cutoff for positive-scoring molecules 3-fold increase, read-out: AK-based Prestwick Library Screening Results, S. aureus (increase in extracellular AK activity)): 0.4
- fold induction at 50 µM ([4]; 384-well format, cutoff for positive-scoring molecules 3-fold increase, read-out: AK-based Prestwick Library Screening Results, E. faecium (increase in extracellular AK activity)): 0.9
- fold induction at 50 µM ([5]; 384-well format, cutoff for positive-scoring molecules 3-fold increase, read-out: AK-based Prestwick Library Screening Results, A. baumannii (increase in extracellular AK activity)): 0.4
- fold induction at 50 µM ([6]; 384-well format, cutoff for positive-scoring molecules 3-fold increase, read-out: AK-based Prestwick Library Screening Results, K. pneumoniae (increase in extracellular AK activity)): 0.4
- fold induction at 50 µM ([7]; 384-well format, cutoff for positive-scoring molecules 3-fold increase, read-out: AK-based Prestwick Library Screening Results, E. coli (increase in extracellular AK activity)): 0.4

SMILES: CC1CC(OC(=O)c2ccccc2O)CC(C)(C)C1 (centres unmarked) [Homosalate]
- fold induction at 50 µM [1, 8]: 1.5
- fold induction at 50 µM [2, 9]: 1.1
- fold induction at 50 µM [3, 10]: 1.2
- fold induction at 50 µM [4, 11]: 1.1
- fold induction at 50 µM [5, 12]: 1.8
- fold induction at 50 µM [6, 13]: 1.1
- fold induction at 50 µM [7, 14]: 1.3
